Measured values reported in patent US20250059172A1, “INDAZOLE COMPOUND AND PHARMACEUTICAL” (NIPPON SHINYAKU CO., LTD., priority 2021, published 2025).
Where a name gives a salt, the structure may show the parent alone.

Experiments:
human A549 cells = assay: Inhibition test of PGE2 production using human A549 cells; format: cell-based; details: IL-1β stimulated A549 cells, 24 h, PGE2 by HTRF, read-out: A549 cell inhibition of PGE2 production IC50
Outline: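 A549 cells were preincubated 60 min with compound in RPMI/3% FBS (0.1% DMSO final), then stimulated with IL-1β (5 ng/well) for 24 h at 37°C. PGE2 was measured by HTRF and PGF2a by EIA; activity was normalized to stimulated minus unstimulated controls, and IC50 derived.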

human mPGES-1 = human mPGES-1 (Homo sapiens (Human), UniProt O14684); assay: mPGES-1 inhibitory activity test; format: biochemical; details: for IC50: microsomes of CHO-K1 cells expressing human mPGES-1, PGH2 1 μM, PGE2 by HTRF, read-out: mPGES-1 inhibition (IC50 nM); for inhibition at 0.01 µM: 10 nM test compound; for inhibition at 0.1 µM: 100 nM test compound
human mPGES-1, sequence (O14684 whole entry): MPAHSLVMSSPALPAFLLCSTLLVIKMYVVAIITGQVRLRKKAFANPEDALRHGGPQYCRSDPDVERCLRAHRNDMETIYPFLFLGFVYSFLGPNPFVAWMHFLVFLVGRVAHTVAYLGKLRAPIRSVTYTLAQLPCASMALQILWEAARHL
Outline: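 PGE2 formation was quantified by HTRF and reported as percent inhibition at 10 and 100 nM compound or as IC50. The 60-second reaction at 4° C used 1 μM PGH2, after a 20-minute 4° C preincubation of compound (1% DMSO final) with glutathione-supplemented (2.5 mM, pH 7.4) microsomes. The microsomes were from transiently transfected CHO-K1 cells expressing human mPGES-1.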

Row | SMILES | IC50 (human A549 cells) [nM] | IC50 (human mPGES-1) [nM] | inhibition at 0.01 µM (human mPGES-1) [%] | inhibition at 0.1 µM (human mPGES-1) [%]
1 | O=C(Nc1cccc2c1cnn2-c1cccc(C(F)(F)F)c1)c1cc(CNC(=O)C2CC2)ccc1Cl [Example 3, 2-Chloro-5-{[(cyclopropylcarbonyl)amino]methyl}-N-{1-[3-(trifluoromethyl)phenyl]-1H-indazol-4-yl}benzamide] | 0.7 | 1.2 |  | 
2 | CC(C)(C)C(=O)NCc1ccc(C(F)(F)F)c(C(=O)Nc2cccc3c2cnn3-c2cccc(OC(F)(F)F)c2)c1 [Example 195, 5-{[(2,2-Dimethylpropanoyl)amino]methyl}-N-{1-[3-(trifluoromethoxy)phenyl]-1H-indazol-4-yl}-2-(trifluoromethyl)benzamide] | 0.8 |  | 65 | 84
3 | COC(C)(C)c1ccc(-n2ncc3c(NC(=O)c4cc(CNC(=O)C(C)(C)C)ccc4Cl)cccc32)cn1 [Example 84, 2-Chloro-5-{[(2,2-dimethylpropanoyl)amino]methyl}-N-{1-[6-(2-methoxypropan-2-yl)pyridin-3-yl]-1H-Indazol-4-yl}benzamide hydrochloride] | 4.9 | 0.8 |  | 
4 | COc1ccccc1-n1ncc2c(NC(=O)c3cc(CNC(=O)C4CC4)ccc3Cl)cccc21 [Example 13, 2-Chloro-5-{[(cyclopropylcarbonyl)amino]methyl}-N-[1-(2-methoxyphenyl)-1H-indazol-4-yl]benzamide] | 505 | 2 |  | 
5 | CC(C)(C)C(=O)NCc1ccc(Cl)c(C(=O)Nc2cccc3c2cnn3-c2cccc(OC(F)F)c2)c1 [Example 81, 2-Chloro-N-{1-[3-(difluoromethoxy)phenyl]-1H-indazol-4-yl}-5-{[(2,2-dimethylpropanoyl)amino]methyl}benzamide] | 0.3 | 14.9 |  | 
6 | CC(C)(C)C(=O)NCc1ccc(C(F)(F)F)c(C(=O)Nc2cccc3c2cnn3-c2ccc(C(F)(F)F)nc2)c1 [Example 196, 5-{[(2,2-Dimethylpropanoyl)amino]methyl}-2-(trifluoromethyl)-N-{1-[6-(trifluoromethyl)pyridin-3-yl]-1H-indazol-4-yl}benzamide] | 2 |  | 60 | 78
7 | Cn1ncc2c(NC(=O)c3cc(CNC(=O)C(C)(C)C)ccc3C(F)(F)F)cccc21 [Example 209, 5-{[(2,2-Dimethylpropanoyl)amino]methyl}-N-(1-methyl-1H-indazol-4-yl)-2-(trifluoromethyl)benzamide] | 38.4 |  | 76 | 90
8 | CC(C)n1ncc2c(NC(=O)c3cc(CNC(=O)C4CCCC4)ccc3Cl)cccc21 [Example 180, 2-Chloro-5-{[(cyclopentylcarbonyl)amino]methyl}-N-[1-(propan-2-yl)-1H-indazol-4-yl]benzamide] | 40.6 |  | 75 | 
9 | CC(=O)N1CCC(n2ncc3c(NC(=O)c4cc(CNC(=O)C(C)(C)C)ccc4Cl)cccc32)CC1 [Example 106, N-[1-(1-acetylpiperidin-4-yl)-1H-indazol-4-yl]-2-chloro-5-{[(2,2-dimethylpropanoyl)amino]methyl}benzamide] | 884 | 175 |  | 
10 | CN(C)CCC(=O)NCc1ccc(Cl)c(C(=O)Nc2cccc3c2cnn3-c2ccc(C(F)(F)F)cc2)c1 [Example 35, 2-Chloro-5-{[(N,N-dimethyl-p-alanyl)amino]methyl}-N-{1-[4-(trifluoromethyl)phenyl]-1H-indazol-4-yl}benzamide hydrochloride] | 933 | 116 |  | 
11 | N#CC1(C(=O)NCc2ccc(Cl)c(C(=O)Nc3cccc4c3cnn4-c3ccc(C(F)(F)F)cc3)c2)CC1 [Example 25, 2-Chloro-5-({[(1-cyanocyclopropyl)carbonyl]amino}methyl)-N-{1-[4-(trifluoromethyl)phenyl]-1H-indazol-4-yl}benzamide] | 8.6 | 3.9 |  | 
12 | CC(C)(C)OC(=O)N1CCC(n2ncc3c(NC(=O)c4cc(CNC(=O)C(C)(C)C)ccc4Cl)cccc32)CC1 [Example 103, tert-Butyl 4-(4-{[(2-chloro-5-{[(2,2-dimethylpropanoyl)amino]methyl}phenyl)carbonyl]amino}-1H-indazol-1-yl)piperidine-1-carboxylate] | 4 | 2.7 |  | 
13 | COCC(=O)NCc1ccc(Cl)c(C(=O)Nc2cccc3c2cnn3-c2ccc(C)c(C(F)(F)F)c2)c1 [Example 258, 2-Chloro-5-{[(methoxyacetyl)amino]methyl}-N-{l-[4-methyl-3-(trifluoromethyl)phenyl]-1H-indazol-4-yl}benzamide] | 3.2 |  | 84 | 100

Continued by falling IC50 (human A549 cells), values first:

Row | IC50 (human A549 cells) [nM] | IC50 (human mPGES-1) [nM] | inhibition at 0.01 µM (human mPGES-1) [%] | inhibition at 0.1 µM (human mPGES-1) [%] | SMILES
14 | 72 | 4.7 |  |  | Cc1ccc(-n2ncc3c(NC(=O)c4cc(CNC(=O)C(F)(F)F)ccc4Cl)cccc32)cn1 [Example 87, 2-Chloro-N-[1-(6-methylpyridin-3-yl)-1H-indazol-4-yl]-5-{[(trifluoroacetyl)amino]methyl}benzamide hydrochloride]
15 | 65.8 |  | 84 |  | CCn1ncc2c(NC(=O)c3cc(CNC(=O)C4CCCC4)ccc3Cl)cccc21 [Example 211, 2-Chloro-5-{[(cyclopentylcarbonyl)amino]methyl}-N-(1-ethyl-1H-indazol-4-yl)benzamide]
16 | 13.7 | 1 |  |  | CCC(O)(CC)C(=O)NCc1ccc(Cl)c(C(=O)Nc2cccc3c2cnn3-c2ccc(C(F)(F)F)cc2)c1 [Example 41, 2-Chloro-5-{[(2-ethyl-2-hydroxybutanoyl)amino]methyl}-N-{1-[4-(trifluoromethyl)phenyl]-1H-indazol-4-yl}benzamide]
17 | 7.8 | 5.6 |  |  | Cc1c(Cl)cccc1-n1ncc2c(NC(=O)c3cc(CNC(=O)C4CC4)ccc3Cl)cccc21 [Example 15, 2-Chloro-N-[1-(3-chloro-2-methylphenyl)-1H-indazol-4-yl]-5-{[(cyclopropylcarbonyl)amino]methyl}benzamide]
18 | 5.2 | 2.4 |  |  | Cc1cc(-n2ncc3c(NC(=O)c4cc(CNC(=O)C(C)(C)C)ccc4Cl)cccc32)cc(C)n1 [Example 76, 2-Chloro-5-{[(2,2-dimethylpropanoyl)amino]methyl}-N-[1-(2,6-dimethylpyridin-4-yl)-1H-indazol-4-yl]benzamide hydrochloride]
19 | 4.1 | 1.3 |  |  | CC(C)(C)C(=O)NCc1ccc(Cl)c(C(=O)Nc2cccc3c2cnn3CC2CCC2)c1 [Example 99, 2-Chloro-N-[1-(cyclobutylmethyl)-1H-indazol-4-yl]-5-{[(2,2-dimethylpropanoyl)amino]methyl}benzamide]
20 | 3.9 |  | 66 | 91 | COc1ccc(-n2ncc3c(NC(=O)c4cc(CNS(=O)(=O)C5CC5)ccc4Cl)cccc32)cn1 [Example 275, 2-Chloro-5-{[(cyclopropylsulfonyl)amino]methyl}-N-[1-(6-methoxypyridin-3-yl)-1H-indazol-4-yl]benzamide]
21 | 2.5 | 8.9 |  |  | O=C(CC(F)(F)F)NCc1ccc(Cl)c(C(=O)Nc2cccc3c2cnn3-c2ccc(C(F)(F)F)cc2)c1 [Example 37, 2-Chloro-N-{1-[4-(trifluoromethyl)phenyl]-1H-indazol-4-yl}-5-{[(3,3,3-trifluoropropanoyl)amino]methyl}benzamide]
22 | 1.9 |  | 72 | 96 | Cc1cc(-n2ncc3c(NC(=O)c4cc(CNC(=O)C(C)(C)C)ccc4C(F)(F)F)cccc32)cc(C)n1 [Example 283, 5-{[(2,2-Dimethylpropanoyl)amino]methyl}-N-[1-(2,6-dimethylpyridin-4-yl)-1H-indazol-4-yl]-2-(trifluoromethyl)benzamide]
23 | 1.7 | 1.4 |  |  | CC(C)(C)OC(=O)N1CCC(C(=O)NCc2ccc(Cl)c(C(=O)Nc3cccc4c3cnn4-c3ccc(C(F)(F)F)cc3)c2)CC1 [Example 36, tert-Butyl 4-{[4-chloro-3-({1-[4-(trifluoromethyl)phenyl]-1H-indazol-4-yl}carbamoyl)benzyl]carbamoyl}piperidine-1-carboxylate]
24 | 1.2 |  | 61 |  | O=C(Nc1cccc2c1cnn2-c1ccc(OC(F)(F)F)cc1)c1cc(CNC(=O)C2CCCC2)ccc1Cl [Example 115, 2-Chloro-5-{[(cyclopentylcarbonyl)amino]methyl}-N-{1-[4-(trifluoromethoxy)phenyl]-1H-indazol-4-yl}benzamide]
25 | 1 |  | 100 |  | O=C(Nc1cccc2c1cnn2-c1ccc(F)cc1)c1cc(CNC(=O)C2(C(F)(F)F)CC2)ccc1Cl [Example 153, 2-Chloro-N-[1-(4-fluorophenyl)-1H-indazol-4-yl]-5-[({[1-(trifluoromethyl)cyclopropyl]carbonyl}amino)methyl]benzamide]
26 | 1 |  | 74 | 93 | O=C(Nc1cccc2c1cnn2-c1cccc(C(F)(F)F)c1)c1cc(CNC(=O)C2CCCC2)ccc1Cl [Example 219, 2-Chloro-5-{[(cyclopentylcarbonyl)amino]methyl}-N-{1-[3-(trifluoromethyl)phenyl]-1H-indazol-4-yl}benzamide]
27 | 1 |  | 89 | 101 | Cc1ccc(-n2ncc3c(NC(=O)c4cc(CNS(=O)(=O)C5CC5)ccc4Cl)cccc32)cc1C(F)(F)F [Example 260, 2-Chloro-5-{[(cyclopropylsulfonyl)amino]methyl}-N-{1-[4-methyl-3-(trifluoromethyl)phenyl]-1H-indazol-4-yl}benzamide]
